We go through 10 compounds from patent publication US9943506B2, “BCL6 inhibitors as anticancer agents” (Cornell University, priority 2013, dated 2018).

Where two headings read alike, the source gives them in different places. A value given as a limit tells only on which side of the number the result lay.

One data set concerns the target BCL6-BTB (Homo sapiens, UniProt P41182). Kind of data set: MicroScale Thermophoresis binding to BCL6-BTB. How it is done: BCL6 is also required for normal development of germinal center (GC) B-cells.
Recombinant BCL6-BTB was labeled using the RED-NHS Labeling kit (NanoTemper Technologies). […] The label:protein ratio was determined using photometry at 650 nm and Bradford reagent. […] The labeled BCL6-BTB was adjusted to 400 nM with PBS (Thermo) buffer supplemented with 0.05% Tween-80 (Fisher scientific). […] After 10 min incubation, approximately 4 μL of each solution was filled into Monolith NT Standard Treated Capillaries (NanoTemper Technologies GmbH). Thermophoresis was measured using a Monolith NT.115 instrument (NanoTemper Technologies GmbH) at an ambient temperature of 25° C. with 5 s/30 s/5 s laser off/on/off times, respectively. Instrument parameters were adjusted with 90% LED power and 40% MST power. Data of three independent experiments were analyzed (NT.Analysis software version 1.5.41, NanoTemper Technologies) using the signal from Thermophoresis.
(In general: MST reads how a fluorescent partner responds to local heating, with and without ligand.)

A further data set concerns the target T1, HIC1-BTB (Homo sapiens, UniProt Q14526).
T1 construct: expressed in transfected cells; host or cells: 293T
T1 sequence (Q14526 47-110 limits assumed): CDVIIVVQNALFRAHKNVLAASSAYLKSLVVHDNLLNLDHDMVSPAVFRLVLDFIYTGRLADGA
The following applies: earlier work on 79-6; cited from earlier work.

A further data set deals with T2, PLZF-BTB (Homo sapiens, UniProt Q05516).
T2 construct: the repression activity of the HIC1, PLZF, or Kaiso BTB domains; expressed in transfected cells; host or cells: 293T
T2 sequence (Q05516 34-96 limits assumed): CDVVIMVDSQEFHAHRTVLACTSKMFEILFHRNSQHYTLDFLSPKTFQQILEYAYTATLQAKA
The following applies: earlier work on 79-6; cited from earlier work.

A further data set concerns human DLBCL xenografts. The following applies: mice; earlier work on 79-6; cited from earlier work.
A further data set has as its system mice. The following applies: earlier work on 79-6; cited from earlier work.
A further data set has as its system Ly3 DLBCL cells. Kind of data set: Growth inhibition of DLBCL cells, Ly3. Format: cell-based. How it is done:
(§1) 50,000 cells per well were treated for 48 hours with different concentrations of the compounds in 96 well plates, using DMSO as a control. Then, viability was determined with Cell Titer Blue™ (Promega) and growth inhibition was calculated as the percentage of viable cells with respect to cells treated with DMSO alone. GI50 values were determined by dose-response curves.
(§2) 293T cells were grown in Dulbecco's modified Eagles medium supplemented with 10% fetal bovine serum (FBS) (Gemini Bio-Products, Woodland, Calif.) and 1% penicillin-streptomycin. DLBCL cell lines OCI-Ly1, OCI-Ly1-B50, OCI-Ly7, OCI-Ly10 and OCI-Ly19 were grown in 80% Iscove's medium, 20% FBS and penicillin G/streptomycin. DLBCL cell lines Toledo, Farage, SU-DHL4, DOHH-2, SC-1, RCK8, TMD8, HBL-1, Ly3, Karpas 422 and SU-DHL6 were cultured in 90% RPMI medium, 10% FBS, 2 mM glutamine, 10 mM Hepes and penicillin G/streptomycin. All cell lines were cultured at 37° C. in a humidified atmosphere of 5% CO2.

In a further data set the test system is Ly7 DLBCL cells. Kind of data set: Growth inhibition of DLBCL cells, Ly7. Format: cell-based. How it is done: as §1, §2
The test system of the next data set is Ly10 DLBCL cells. Kind of data set: Growth inhibition of DLBCL cells, Ly10. Format: cell-based. As to conditions: Table 9, Bcl6 dependent, read-out: GI 50 Ly10. How it is done: as §1, §2
The test system of another data set is SUDHL6 DLBCL cells. Kind of data set: Growth inhibition of DLBCL cells, SUDHL6. Format: cell-based. The following applies: Homo sapiens, SU-DHL-6. How it is done: as §1, §2
Another data set relates to Karpas 422 DLBCL cells. Kind of data set: Growth inhibition of DLBCL cells, Karpas 422. As to conditions: Homo sapiens. Format: cell-based. How it is done: as §1, §2
A further data set has as its system Toledo DLBCL cells. Kind of data set: Growth inhibition of DLBCL cells, Toledo. Format: cell-based. The following applies: Homo sapiens. How it is done: as §1, §2
The next data set concerns Ly1B50 DLBCL cells. Kind of data set: Growth inhibition of DLBCL cells, Ly1B50. Format: cell-based. As to conditions: Table 9; Bcl6 independent; read-out: GI 50 Ly1B50. The method, then:
as §1, §2

A further data set concerns Ly1 DLBCL cells. Kind of data set: Growth inhibition of DLBCL cells, Ly1. Format: cell-based. The following applies: Table 9; Bcl6 dependent; read-out: GI 50 Ly1. The method, then:
as §1, §2

A further data set concerns WSU-DLCL2 DLBCL cells. Kind of data set: Growth inhibition of DLBCL cells, WSU-DLCL2. Format: cell-based. As to conditions: Homo sapiens, WSUDLCL2. The method, then: as §1
Another data set concerns Ly4 DLBCL cells. Kind of data set: Growth inhibition of DLBCL cells, Ly4. Format: cell-based. As to conditions: Table 9; Bcl6 independent; read-out: GI 50 Ly4. How it is done:
as §1

The mark [1] stands for this setting: Table 9, Bcl6 dependent, read-out: GI 50 Ly3.
The mark [2] stands for this setting: Table 9, Bcl6 dependent, read-out: GI 50 Ly7.
The mark [3] stands for this setting: Table 9, Bcl6 dependent, read-out: GI 50 SUDHL6.
Where [4] appears, read: Table 10, BCL6 dependent, read-out: GI50 SUDHL6.
[5] abbreviates: Table 9, Bcl6 independent, read-out: GI 50 K422.
Where [6] appears, read: Table 9, Bcl6 independent, read-out: GI 50 Toledo.
[7] abbreviates: Table 9, Bcl6 independent, read-out: GI 50 WSUDLCL2.
[8] abbreviates: Table 13, BCL6 dependent, read-out: GI50 SUDHL6.

The Kd is a measure of binding affinity in units of concentration. Low readings indicate a tighter complex, high ones a looser complex.

In turn, `O=C(O)CC(C(=O)O)N1C(=O)/C(=C2/C(=O)Nc3ccc(Br)cc32)SC1=S` (centres unmarked) [Compound 79-6] gave a Kd on BCL6-BTB (affinity to the BCL6-BTB domain) of about 120 µM. In addition, at HIC1-BTB, the “inhibition of HIC1 BTB domain” value is recorded as “not other BTB domains”. Moreover, at PLZF-BTB, the “inhibition of PLZF BTB domain” value was “not other BTB domains”. Besides, in the data set on human DLBCL xenografts, the “effect on human DLBCL xenografts” value was “suppresses human DLBCL xenografts”. The toxicity result in the data set with mice was “not toxic”.
Turning to `O=C(CN1C(=O)C(=O)c2cc(Cl)ccc21)OCc1ccc(Cl)cc1` [Compound 355], the GI50 with Ly3 DLBCL cells (setting [1]) was 54 µM; in the data set with Ly7 DLBCL cells (setting [2]), 45 µM; with Ly7 DLBCL cells (Table 10, BCL6 dependent), 43 ± 3 µM; in the data set on Ly10 DLBCL cells it was 62 µM; with SUDHL6 DLBCL cells (setting [3]), 1 µM; with SUDHL6 DLBCL cells (setting [4]), 42 ± 10 µM. In addition, the GI50 with Karpas 422 DLBCL cells (setting [5]) was found to be 38 µM; in the data set with Toledo DLBCL cells (setting [6]), 35 µM; in the data set on Toledo DLBCL cells (Table 10, BCL6 independent), 45 ± 7 µM; in the data set on Ly1B50 DLBCL cells, 55 µM; with Ly1 DLBCL cells, 37 µM; in the data set on WSU-DLCL2 DLBCL cells (setting [7]), 52 µM. The GI50 in the data set on Ly4 DLBCL cells turned out to be 81 µM.
Turning to `O=C(CN1C(=O)C(=O)c2cc(Cl)ccc21)OCc1ccc(F)cc1` [Compound 357], the GI50 with Ly3 DLBCL cells (setting [1]) was 79 µM; in the data set with Ly7 DLBCL cells (setting [2]), 25 µM; with Ly7 DLBCL cells (Table 10, BCL6 dependent) it was 30 ± 10 µM; in the data set with Ly10 DLBCL cells, 60 µM; in the data set on SUDHL6 DLBCL cells (setting [3]) it was 1 µM; in the data set with SUDHL6 DLBCL cells (setting [4]), 22 ± 3 µM. Besides, the GI50 was determined as 58 µM in the data set on Karpas 422 DLBCL cells (setting [5]); 51 µM in the data set with Toledo DLBCL cells (setting [6]); 50 ± 1 µM in the data set on Toledo DLBCL cells (Table 10, BCL6 independent); 56 µM in the data set with Ly1B50 DLBCL cells; 81 µM in the data set with Ly1 DLBCL cells; 100 µM in the data set with WSU-DLCL2 DLBCL cells (setting [7]). In the data set on Ly4 DLBCL cells, the GI50 was over 125 µM.
For the compound `O=C(CN1C(=O)C(=O)c2cc(Cl)ccc21)OCc1cccc(F)c1` [Compound 358], the GI50 is over 125 µM in the data set on Ly3 DLBCL cells (setting [1]); 20 µM in the data set with Ly7 DLBCL cells (setting [2]); 40 ± 10 µM in the data set on Ly7 DLBCL cells (Table 10, BCL6 dependent); over 125 µM with Ly10 DLBCL cells; 2 µM in the data set with SUDHL6 DLBCL cells (setting [3]); 27 ± 4 µM with SUDHL6 DLBCL cells (setting [4]). Further, the GI50 was over 125 µM in the data set with Karpas 422 DLBCL cells (setting [5]); 69 µM in the data set with Toledo DLBCL cells (setting [6]); 82 ± 20 µM in the data set with Toledo DLBCL cells (Table 10, BCL6 independent); over 125 µM with Ly1B50 DLBCL cells; over 125 µM in the data set on Ly1 DLBCL cells; over 125 µM with WSU-DLCL2 DLBCL cells (setting [7]). The GI50 in the data set on Ly4 DLBCL cells was over 125 µM.
Regarding `C[C@@H](OC(=O)CN1C(=O)C(=O)c2cc(Cl)ccc21)c1ccccc1` [Compound 361], the GI50 in the data set with Ly3 DLBCL cells (setting [1]) came to 56 µM; with Ly7 DLBCL cells (setting [2]) it was 26 µM; in the data set with Ly10 DLBCL cells, 166 µM; in the data set with SUDHL6 DLBCL cells (setting [3]) it was 7 µM; in the data set on Karpas 422 DLBCL cells (setting [5]) it was 20 µM; in the data set with Toledo DLBCL cells (setting [6]), 39 µM. Further, the GI50 in the data set with Ly1B50 DLBCL cells was determined as 103 µM; in the data set with Ly1 DLBCL cells it was 24 µM; in the data set on WSU-DLCL2 DLBCL cells (setting [7]) it was 41 µM; in the data set with Ly4 DLBCL cells, 98 µM.
In turn, `O=C(CN1C(=O)C(=O)c2cc(Cl)ccc21)OCc1ccsc1` [Compound 367] yielded a Kd on BCL6-BTB (Table 10) of 324 ± 34 µM. The GI50 in the data set with Ly7 DLBCL cells (Table 10, BCL6 dependent) amounted to 22 ± 4 µM; in the data set on SUDHL6 DLBCL cells (setting [4]) it was 15 ± 7 µM; with Toledo DLBCL cells (Table 10, BCL6 independent), 53 ± 10 µM.
In turn, `Clc1ccc2[nH]c(SCc3ccccc3)nc2c1` [Compound 1057] registered a Kd at BCL6-BTB (Table 13) of 87 ± 12 µM. The GI50 in the data set on Ly7 DLBCL cells (Table 13, BCL6 dependent) was over 125 µM; in the data set with SUDHL6 DLBCL cells (setting [8]) it was over 125 µM; in the data set with Toledo DLBCL cells (Table 13, BCL6 independent) it was over 125 µM.
On to `O=[N+]([O-])c1ccc2[nH]c(SCc3ccccc3)nc2c1` [Compound 1061], for which the Kd on BCL6-BTB (Table 13) came out at 180 ± 36 µM. Also, the GI50 was 60 µM in the data set with Ly7 DLBCL cells (Table 13, BCL6 dependent); 40 ± 10 µM with SUDHL6 DLBCL cells (setting [8]); over 125 µM with Toledo DLBCL cells (Table 13, BCL6 independent).
Take `CCOc1ccc2[nH]c(SCc3ccccc3)nc2c1` [Compound 1063]: on BCL6-BTB (Table 13), binding was put at a Kd of 315 ± 24 µM. The GI50 in the data set with Ly7 DLBCL cells (Table 13, BCL6 dependent) was over 125 µM; in the data set with SUDHL6 DLBCL cells (setting [8]), over 125 µM; in the data set with Toledo DLBCL cells (Table 13, BCL6 independent) it was over 125 µM.
As for `O=C(O)CCN1C(=O)/C(=C2/C(=O)N(CC(=O)OCc3ccccc3)c3ccc(Cl)cc32)SC1=S` [Compound 2099], the Kd at BCL6-BTB (Table 5) was found to be 5.5 ± 0.7 µM. Further, the GI50 in the data set with Ly3 DLBCL cells (Table 8, Bcl-6 dependent) was over 30 µM; in the data set with Ly7 DLBCL cells (Table 5, BCL6 dependent), 65 µM; in the data set on Ly7 DLBCL cells (Table 8, Bcl-6 dependent), over 30 µM; in the data set on SUDHL6 DLBCL cells (Table 5, BCL6 dependent, read-out: GI50 SUDHL6) it was 30 ± 7 µM; in the data set on SUDHL6 DLBCL cells (Table 8, Bcl-6 dependent, read-out: GI50 SUDH6), over 30 µM; in the data set with Karpas 422 DLBCL cells (Table 8, Bcl-6 independent, read-out: GI50 Karpas 422), over 30 µM. In addition, the GI50 in the data set on Toledo DLBCL cells (Table 5, BCL6 independent) was 75 µM; with Toledo DLBCL cells (Table 8, Bcl-6 independent), over 30 µM; with WSU-DLCL2 DLBCL cells (Table 8, Bcl-6 independent), over 30 µM.
